In patent publication US20250340561A1, “QUINAZOLINE COMPOUND FOR INDUCING DEGRADATION OF G12D MUTANT KRAS PROTEIN” (Astellas Pharma Inc., priority 2021, published 2025):

Target: T1, KRAS G12D (Homo sapiens, UniProt P01116, G12D)
T1 construct: host or cells: AsPC-1 human pancreatic cancer cells
Assay: Test Example 1-2: KRAS degradation action in AsPC-1, Cell ELISA
Format: cell-based
Settings: AsPC-1 cells, overnight treatment, corrected with β-actin, 0% = 10 μM Example No. 26 (Example No. 8 for Example Nos. 74 and 75)
Description: Test Example 1-2: Evaluation of KRAS Degradation Action on Human G12D Mutant KRAS-Positive Pancreatic Cancer Line AsPC-1
The KRAS degradation action of test compounds was evaluated by measuring the expression levels of KRAS G12D by Cell ELISA.
[…] As for the cell culture conditions, a RPMI 1640 medium containing 10% fetal bovine serum was used in the presence of 5% CO2 at 37° C. The next day, the test compounds (10 points having final concentrations in the range of 10 μM to 0.3 nM), the compound of Example No. 26 (Example No. 8 for Example Nos. 74 and 75) of a final concentration of 10 μM as a positive control and DMSO, which was the solvent for the test compounds, as a negative control were diluted 500-fold with a fresh medium and were added at 20 μL per well. The cells were cultured overnight.
The next day, the culture supernatant was removed, and 4% paraformaldehyde phosphate buffer (from FUJIFILM Wako Pure Chemical Corporation) was added at 20 μL per well. The plate was allowed to stand for 30 minutes at room temperature to thus immobilize the cells. Then, the supernatant was removed, and 0.1% Triton X-100 (from Amersham Biosciences)-containing PBS was added at 20 μL per well. After allowing to stand for 10 minutes at room temperature, the supernatant was removed. PBS was added at 25 μL per well, and the supernatant was removed to thus wash each well. The washing was performed twice in total. Next, the supernatant was removed, and 0.5% sodium dodecyl sulfate (SDS; from Invitrogen)-containing PBS was added at 20 μL per well. After allowing to stand at room temperature for 10 minutes, the supernatant was removed by centrifugation (using a centrifugal dehydrator machine, the supernatant was removed by the same method hereinafter). PBS was added at 25 μL per well, and the supernatant was removed to thus wash each well. The washing was performed twice in total. The supernatant was removed by centrifugation, and a blocking solution (Intercept Blocking Buffer) was added at 20 μL per well. After allowing to stand for 30 minutes at room temperature, the supernatant was removed by centrifugation, and a solution obtained by diluting an anti-Ras (G12D Mutant Specific) antibody and an anti-3-actin antibody 1,000-fold with a blocking solution was added at 20 μL per well as a primary antibody. The plate was allowed to stand overnight at 4° C.
The next day, the plate was centrifuged to remove the supernatant. PBS was added at […], and the supernatant was removed to thus wash each well. The washing was performed twice in total. The supernatant was removed by centrifugation, and a solution obtained by diluting Donkey anti-Mouse IgG H&L (TRDye 680RD) (from Li—COR Biosciences) and Goat anti-Rabbit IgG H&L (IRDye 800CW) (from Li—COR Biosciences) 1,000-fold with a blocking solution was added at 20 μL per well as a secondary antibody. After allowing to stand for 1 hour at room temperature, the supernatant was removed. PBS was added at 25 μL per well, and the supernatant was removed to thus wash each well. The washing was performed twice in total. After removing the supernatant by centrifuging the plate, the plate was dried as it was with air at room temperature for 2 hours or more, and the 700-nm and 800-nm fluorescent signals were measured with Aerius (from LI-COR Biosciences).
With the signaling value at the time of addition of DMSO corrected with the signaling value of β-actin taken as 100% and with the signaling value at the time of addition of 10 μM of the compound of Example No. 26 taken as 0%, the 50% degradation values (DC50) of the amounts of KRAS were calculated by Sigmoid-Emax model nonlinear regression analysis. The molecular weights of the test compounds were calculated as the molecular weights of the trihydrochloride for Example No. 30, the tetrahydrochloride for Example No. 46 and the free forms forming no salt for the remaining Example Nos. The results for some test compounds of the formula (I) are shown in Table 2.

T1 sequence (P01116 1-188 isoform P01116-2 G12D): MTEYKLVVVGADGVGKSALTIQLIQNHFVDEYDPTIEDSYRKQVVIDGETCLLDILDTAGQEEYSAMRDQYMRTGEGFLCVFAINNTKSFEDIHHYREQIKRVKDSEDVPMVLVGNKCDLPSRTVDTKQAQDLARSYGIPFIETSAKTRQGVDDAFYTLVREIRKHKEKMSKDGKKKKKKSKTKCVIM

DC50 [µM] | SMILES
1 | Cc1ncsc1-c1ccc([C@H](CO)NC(=O)[C@@H]2C[C@@H](O)CN2C(=O)[C@@H](NC(=O)CCN(C)C(=O)c2ccc(COc3c(-c4c(C)c(F)cc5[nH]ncc45)c(C4CC4)cc4c(N5C[C@@H]6C[C@H]5CN6)nc(OC5CCOCC5)nc34)cc2)C(C)C)cc1 [Example 74]
5.89 | Cc1ncsc1-c1ccc([C@H](CO)NC(=O)[C@@H]2C[C@@H](O)CN2C(=O)[C@@H](NC(=O)C[C@@H]2CCN(C(=O)c3ccc(COc4c(-c5c(C)c(F)cc6[nH]ncc56)c(C5CC5)cc5c(N6C[C@@H]7C[C@H]6CN7)nc(OC6CCOCC6)nc45)cc3)C2)C(C)C)cc1 [Example 75]
